# Measurements published in the Deep4Chem optical property database.
# Where “and” joins values, the source holds several entries; their conditions need not be identical. Equal entries are not always repeated.
# Assay: solvent given as SMILES
structure (smiles),measurement,setting,value
COc1ccc(C#Cc2nc3ccccc3nc2-c2cn(C)c3ccccc23)cc1,emission maximum,in C1CCOC1,490 nm
same,emission maximum,in CC#N,518 nm
same,emission maximum,in CC(C)=O,513 nm
same,emission maximum,in CC(C)O,519 nm
same,emission maximum,in CCO,522 nm
same,emission maximum,in CCOC(C)=O,491 nm
same,emission maximum,in CO,525 nm
same,emission maximum,in Cc1ccccc1,468 nm
same,emission maximum,in ClCCl,506 nm
Cn1c(-c2ccc(-c3nc(-c4ccccc4)c(-c4ccccc4)n3C)cc2)nc(-c2ccccc2)c1-c1ccccc1,emission maximum,in CC#N,440 nm and 417 nm
CCC(C)(C)c1ccc(-c2ccc(-c3ccc(C(C)(C)CC)cc3)cc2)cc1,emission maximum,in C1COCCO1,354 nm
Cc1ccc(C(=O)OCc2c(C)c(=O)n3c(=O)c(C)c(C)n23)cc1,emission maximum,in CCO,460 nm
CC(C)(C)OC(=O)/C=C/C1=CC2=C(c3ccccc3)c3cccn3[B-](F)(F)[N+]2=C1,emission maximum,in ClCCl,575 nm
CCCCn1cc(/C=C/c2cc(=O)oc3cc(C)ccc23)c2ccccc21,emission maximum,in CS(C)=O,532 nm
same,emission maximum,in ClC(Cl)Cl,474 nm
Cc1cscc1-c1cc2c3cc(-c4cscc4C)c4nc(C(F)(F)C(F)(F)C(F)(F)F)nc5c(-c6cscc6C)cc(c6cc(-c7cscc7C)c7nc(C(F)(F)C(F)(F)C(F)(F)F)nc1c7c26)c3c45,emission maximum,in C1CCOC1,551 nm
Cc1ccc2[nH]c(-c3ccc(-c4ccc(-c5ccc(-c6nc7cc(C)ccc7[nH]6)cc5)c(F)c4)cc3)nc2c1,emission maximum,in CN(C)C=O,423 nm
CC(C)(C)c1ccc(-c2c(-c3ccc(-n4c5ccccc5c5ccccc54)cc3)c(C#N)c(-c3ccc(-n4c5ccccc5c5ccccc54)cc3)c(-c3ccc(C(C)(C)C)cc3)c2-c2ccc(C(C)(C)C)cc2)cc1,emission maximum,in C1CCOC1,406 nm
C#CCOc1ccc(/C=C/C2=[N+]3C(=C(c4ccc(N(CC)CC)cc4)c4c(C)cc(/C=C/c5ccc(OCC(=O)OC)cc5)n4[B-]3(F)F)C(C)=C2)cc1,emission maximum,in CO,655 nm
c1ccc(N(c2ccccc2)c2ccc(-c3ncc(-c4ccc(-c5cnc(-c6ccc(N(c7ccccc7)c7ccccc7)cc6)s5)s4)s3)cc2)cc1,emission maximum,in CO,503 nm
N#Cc1nn(-c2cccc(C(F)(F)F)c2)nc1N1CCCC1,emission maximum,in CC#N,430 nm
F[B-]12OC(c3ccccc3)=Nc3cccc([n+]31)N=C(c1ccccc1)O2,emission maximum,in ClCCl,456 nm
CCOC(=O)c1sc(SC)c2c(=O)n(C)nnc12,emission maximum,in C1CCOC1,470 nm
same,emission maximum,in CC#N,484 nm
same,emission maximum,in CCO,501 nm
same,emission maximum,in CN(C)C=O,487 nm
same,emission maximum,in CO,508 nm
same,emission maximum,in CS(C)=O,501 nm
Cc1ccc2c(c1)C(=O)c1ccncc1-2,emission maximum,in CC#N,536.75 nm
same,emission maximum,in CCCCCC,487.83 nm
CN(C)c1ccc2c(C(=O)NCc3ccccc3)cc(C(=O)[O-])nc2c1,emission maximum,in CCO,603 nm
CN(C)c1cccc2c1C(=O)c1ccccc1C2=O,emission maximum,in C1CCCCC1,566 nm
same,emission maximum,in CC1CCCCC1,566.5 nm
same,emission maximum,in CC#N,593 nm
same,emission maximum,in CCC(C)CC,566 nm
same,emission maximum,in CCCCCC,566.2 nm
same,emission maximum,in CCOC(C)=O,585 nm
CN(C)c1ccc(-c2cc(=O)c3ccccc3o2)cc1,emission maximum,in C1CCCCC1,382.35 nm
same,emission maximum,in CC#N,474 nm and 462.75 nm
same,emission maximum,in CCOC(C)=O,442 nm and 433.73 nm
same,emission maximum,in Cc1ccccc1,417 nm
C(=C\c1c2ccccc2cc2ccccc12)/c1cnc2ccccc2c1,emission maximum,in CC1CCCCC1,488 nm
same,emission maximum,in CC#N,494 nm
COc1cc(OC)c2cc(C#N)c(=N)oc2c1,emission maximum,in ClCCl,428 nm
O=c1c2cc(F)c(O)cc2n(-c2ccccc2)c2cc(O)c(F)cc12,emission maximum,in CCO,454 nm
CCOC(=O)c1c(-c2cc3ccccc3oc2=O)nn(-c2cccc(F)c2)c1C(=O)OCC,emission maximum,in ClCCl,401 nm
Cc1ccc2nc3cc4ccccc4cc3c(-c3ccccc3)c2c1,emission maximum,in ClCCl,521 nm
Cc1ccc2c(c1)C(c1ccccc1)(c1ccccc1)c1cc(C)ccc1N2c1ccc2c(c1)Sc1ccccc1B2c1c(C(C)C)cc(C(C)C)cc1C(C)C,emission maximum,in Cc1ccccc1,493 nm
same,emission maximum,in O=P(c1ccccc1)(c1ccccc1)c1ccc2oc3ccc(P(=O)(c4ccccc4)c4ccccc4)cc3c2c1,497 nm
O=C1c2ccc(-c3ccc(N(c4ccc(-c5ccccc5)cc4)c4ccc(-c5ccccc5)cc4)cc3)cc2C(=O)c2ccc(-c3ccc(N(c4ccc(-c5ccccc5)cc4)c4ccc(-c5ccccc5)cc4)cc3)cc21,emission maximum,in Cc1ccccc1,608 nm
same,emission maximum,in c1ccc2c(c1)c1ccccc1n2-c1ccc(-c2ccc(-n3c4ccccc4c4ccccc43)cc2)cc1,601 nm
CCCCCCCCN1C(=O)c2ccc3c4c(-c5ccc6c(c5)c5ccccc5n6-c5ccccc5)cc5c6c(cc(-c7ccc8c(c7)c7ccccc7n8-c7ccccc7)c(c7ccc(c2c37)C1=O)c64)C(=O)N(CCCCCCCC)C5=O,emission maximum,in ClC(Cl)Cl,663 nm
COc1cc2c(cc1OC)C1=C[C@H](c3ccc(C)cc3)C3(C(C#N)=C(C#N)N1CC2)c1cc(Cl)ccc1-c1ccc(Cl)cc13,emission maximum,in ClCCl,402 nm
CC(C)[Si]1(C(C)C)c2cc(C=C(C#N)C#N)ccc2-c2ccc(N(C)C)cc21,emission maximum,in C1CCCCC1,509 nm
same,emission maximum,in CC#N,694 nm
same,emission maximum,in CCO,691 nm
same,emission maximum,in CCOCC,584 nm
same,emission maximum,in CS(C)=O,714 nm
same,emission maximum,in ClCCl,644 nm
same,emission maximum,in c1ccccc1,566 nm
CCCCc1ccc2c(c1)c1ccc3cccc4c3c1c1c2c2cccc3ccc5c6cc(CCCC)ccc6c4c1c5c32,emission maximum,in ClCCl,506 nm
c1ccc2c(c1)-c1cc(-n3c4ccccc4c4ccccc43)ccc1C21c2ccccc2-n2c3ccccc3c3cccc1c32 (stereo not given),emission maximum,in ClCCl,372 nm
O=Cc1ccc2nc(C#Cc3ccc(N(c4ccccc4)c4ccccc4)cc3)sc2c1,emission maximum,in Cc1ccccc1,473 nm
OB(O)c1ccc(-c2ccc(N(c3ccccc3)c3ccccc3)cc2)cc1,emission maximum,in C1CCCCC1,384 nm
same,emission maximum,in C1CCOC1,410 nm
same,emission maximum,in CCO,422.4 nm
same,emission maximum,in CCOCC,398 nm
same,emission maximum,in CO,432 nm
CC(=O)Nc1ccc2c(c1)c(=O)c1cc(NC(C)=O)ccc1n2CCCCCC(=O)O,emission maximum,in O,463 nm
c1ccc(-c2c3c(c(-c4ccccc4)c4cc5ccccc5cc24)Cc2c(c(-c4ccccc4)c4cc5ccccc5cc4c2-c2ccccc2)C3)cc1,emission maximum,in CC#N,400 nm
same,emission maximum,in CCCCCC,396 nm
same,emission maximum,in CO,398 nm
same,emission maximum,in Cc1ccccc1,402 nm
same,emission maximum,in ClCCl,402 nm
CC1=[N+]2C(=C(c3ccc4c(c3)Cc3ccccc3-4)c3ccc(C)n3[B-]2(F)F)C=C1c1cc2n(c1)[B-](F)(F)[N+]1=CC=CC1=C2c1c(C)cc(C)cc1C,emission maximum,in C1CCCCC1,645 nm
same,emission maximum,in CCOC(C)=O,675 nm
O=[N+]([O-])c1ccc(/C=C/c2c[nH]c3ccccc23)cc1,emission maximum,in CC#N,642 nm
same,emission maximum,in CCCCCCC,511 nm
same,emission maximum,in CO,567 nm
same,emission maximum,in O,552 nm
CC(C)c1cccc(C(C)C)c1-n1c(=O)c2ccc3c4ccc5c(=O)n(-c6c(C(C)C)cccc6C(C)C)c(=O)c6cc7c(-c8ccccn8)nc8cc(c1=O)c2c3c8c7c4c56,emission maximum,in ClC(Cl)Cl,485 nm
CCOC(=O)c1[nH]c(C)c(/C=C/C2=[N+]3C(=C(c4cc(OC)cc(OC)c4)c4c(C)c(I)c(/C=C/c5c(C)[nH]c(C(=O)OCC)c5C)n4[B-]3(F)F)C(C)=C2I)c1C,emission maximum,in C1CCOC1,713 nm
same,emission maximum,in CS(C)=O,731 nm
same,emission maximum,in ClCCl,710 nm
O=C(O)c1ccc2ccc3cccc4ccc1c2c34,emission maximum,in C1CCOC1,387 nm
same,emission maximum,in CC#N,389 nm
same,emission maximum,in CCCCCC,387 nm
same,emission maximum,in CCO,380 nm
same,emission maximum,in CN(C)C=O,388 nm
same,emission maximum,in CO,380 nm
same,emission maximum,in Cc1ccccc1,392 nm
same,emission maximum,in ClCCl,394 nm
COCCOCCOCCOCC(COCCOCCOCCOC)Oc1cc(/C=C/c2ccc(/C=C(\C#N)c3ccncc3)cc2)c(OC(COCCOCCOCCOC)COCCOCCOCCOC)cc1/C=C/c1ccc(/C=C(\C#N)c2ccncc2)cc1,emission maximum,in ClCCl,574 nm
CCCCCCn1c(=O)c2c3[nH]c4ccccc4[nH]c3c3c(=O)n(CCCCCC)c(=O)c3c2c1=O,emission maximum,in ClCCl,641 nm
CC(C)(C)c1ccc2c(c1)c1cc(C(C)(C)C)ccc1n2-c1ccc(S(=O)(=O)c2ccc(-n3c4ccc(C(C)(C)C)cc4c4cc(C(C)(C)C)ccc43)nc2)cn1,emission maximum,in Cc1ccccc1,444.37 nm
same,emission maximum,in O=P(c1ccccc1)(c1ccccc1)c1ccc2sc3cccc(P(=O)(c4ccccc4)c4ccccc4)c3c2c1,467 nm
COc1cc2cc(OC)c(-c3ccc([N+](=O)[O-])cc3)cc2cc1-c1ccc([N+](=O)[O-])cc1,emission maximum,in ClC(Cl)Cl,544 nm
same,emission maximum,in ClCCl,578 nm
O=S(=O)([O-])c1cc([O-])c2ccc3c(S(=O)(=O)[O-])cc(S(=O)(=O)[O-])c4ccc1c2c34,emission maximum,in CC#N,513 nm
same,emission maximum,in CC(C)O,511.01 nm
same,emission maximum,in CCO,510 nm
same,emission maximum,in CO,509.01 nm
same,emission maximum,in NC=O,519 nm
same,emission maximum,in O,511.01 nm
same,emission maximum,in OC(C(F)(F)F)C(F)(F)F,506 nm
same,emission maximum,in OCC(F)(F)F,508 nm
same,emission maximum,in OCCO,512.01 nm
C(=C\c1ccc(-c2cccc3ccccc23)s1)/c1ccc(-c2cccc3ccccc23)s1,emission maximum,in ClCCl,475 nm
COc1ccc(-c2nc3c(c4c2-c2ccc(C#N)cc2CC4)-c2ccc(C#N)cc2CC3)cc1,emission maximum,in C1CCOC1,426 nm
same,emission maximum,in CC#N,430 nm
same,emission maximum,in CCCCCC,420 nm
same,emission maximum,in CCOC(C)=O,423 nm
same,emission maximum,in CO,426 nm
same,emission maximum,in CS(C)=O,435 nm
same,emission maximum,in Cc1ccccc1,422 nm
same,emission maximum,in ClCCl,425 nm
Cc1ccc(C(=O)/C=C/c2ccc(N(C)C)cc2)cc1,emission maximum,in C1CCOC1,503 nm
same,emission maximum,in CC#N,529 nm
same,emission maximum,in CC(=O)O,512 nm
same,emission maximum,in CC(C)=O,516 nm
same,emission maximum,in CCO,533 nm
same,emission maximum,in CN(C)C=O,528 nm
same,emission maximum,in CO,533 nm
same,emission maximum,in Cc1ccccc1,477 nm
same,emission maximum,in ClC(Cl)Cl,508 nm
same,emission maximum,in c1ccccc1,473 nm
CC1=CC(C)=[N+]2C1=C(c1ccc(I)cc1)c1c(C)cc(C)n1[B-]21Oc2ccc3ccccc3c2-c2c(ccc3ccccc23)O1,emission maximum,in ClC(Cl)Cl,516.4 nm
O=C1c2ccc3c4c(Oc5ccccc5)cc5c6c(ccc(c7c(Oc8ccccc8)cc(c2c37)C(=O)N1c1ccc(O)cc1)c64)C(=O)N(c1ccc(O)cc1)C5=O,emission maximum,in C1CCOC1,564 nm
same,emission maximum,in CN1CCCC1=O,592 nm
same,emission maximum,in CN(C)C=O,576 nm
